Reference: patent US8592469B2, “Diazonamide analogs” (Joyant Pharmaceuticals, Inc., priority 2012, dated 2013)

Assays:
A2058 cells = assay: Cell viability assay (Cell-Titer-Glo) in A2058 cells; assay type: cell-based; conditions: Homo sapiens, 48 hour treatment, test compounds 1 nM to 1 μM
Experimental: (§1) Cell viability assays were run using standard protocols known to those of skill in art. Cells were plated in 96 well plates at the density of 3,000-10,000 cells per well. Twenty four hours later, cells were treated with increasing concentration of test compounds (1 nM to 1 μM). After another 48 hour, cell survival was measured using Cell-Titer-Glo® reagent (Promega) following the protocol provided by the manufacture. The IC50 value was determined as the concentration of test compound that kills 50% of the cell population.
(§2) Cell viability data generated according to the protocol described above was generated for representative compounds in A2058 and U937 cells. The compounds shown in Table 1 were prepared by the methods described herein for structurally similar compounds. The reference compound was a synthetic diazonamide analog having the structure: […]

U937 cells = assay: Cell viability assay (Cell-Titer-Glo) in U937 cells; assay type: cell-based; conditions: test compounds 1 nM to 1 μM
Experimental: as §1, §2

[1] = Homo sapiens, U-937, 48 hour treatment

Row | SMILES | IC50 (A2058 cells) | IC50 (U937 cells; [1]) | IC50 (U937 cells; 48 hour treatment)
1 | CC(C)[C@H](O)C(=O)N[C@H]1Cc2ccc(O)c(c2)[C@]2(CNc3ccccc32)C2=C(c3nc(CO)co3)N=C(O2)[C@H](C(C)C)NC1=O (single isomer, unassigned) [Compound 102] | 492 nM | 225 nM | 
2 | CC(C)[C@H](O)C(=O)NC1Cc2ccc3c(c2)C2(C4=C(c5nc(COC(=O)C(C)(C)C)co5)N=C(O4)[C@H](C(C)C)NC1=O)c1ccccc1N[C@H]2O3 (stereo partly shown) [Compound 21] | 40 nM | 20 nM | 
3 | CC(=O)OCc1coc(-c2nc3oc2C24c5ccccc5N[C@H]2Oc2ccc(cc24)C[C@H](NC(=O)[C@@H](O)C(C)C)C(=O)N[C@H]3C(C)C)n1 (stereo partly shown) [Compound 22] | 52 nM | 19 nM | 
4 | CC(C)[C@H](O)C(=O)NC1Cc2ccc3c(c2)C2(C4=C(c5nc(COC=O)co5)N=C(O4)[C@H](C(C)C)NC1=O)c1ccccc1N[C@H]2O3 (stereo partly shown) [Compound 23] | 57 nM | 21 nM | 
5 | COC(=O)OCc1coc(-c2nc3oc2C24c5ccccc5N[C@H]2Oc2ccc(cc24)CC(NC(=O)[C@@H](O)C(C)C)C(=O)N[C@H]3C(C)C)n1 (stereo partly shown) [Compound 24] | 26 nM | 19.7 nM | 
6 | CC(C)[C@H](O)C(=O)N[C@H]1Cc2ccc3c(c2)C2(C4=C(c5nc(COP(=O)(O)O)co5)N=C(O4)[C@H](C(C)C)NC1=O)c1ccccc1N[C@H]2O3 (stereo partly shown) [Compound 25] | 70.8 nM | 36.9 nM | 
7 | COC(=O)OCc1coc(-c2nc3oc2C24c5ccccc5N[C@H]2Oc2ccc(cc24)CC(NC(=O)[C@@H](O)C(C)C)C(=O)N[C@H]3C(C)(C)C)n1 (stereo partly shown) [Compound 26] | 3.33 nM | 2.88 nM | 
8 | CC(C)[C@@H]1NC(=O)C(NC(=O)[C@@H](O)C(C)(C)C)Cc2ccc3c(c2)C2(C4=C(c5nc(CO)co5)N=C1O4)c1ccccc1N[C@H]2O3 (stereo partly shown) [Compound 27] | 112 nM | 98 nM | 
9 | CC(C)C[C@H](O)C(=O)N[C@H]1Cc2ccc3c(c2)C2(C4=C(c5nc(CO)co5)N=C(O4)[C@H](C(C)C)NC1=O)c1ccccc1N[C@H]2O3 (stereo partly shown) [Compound 28] | 143 nM | 112 nM | 
10 | CC(O)c1coc(-c2nc3oc2C24c5ccccc5N[C@H]2Oc2ccc(cc24)C[C@H](NC(=O)[C@@H](O)C(C)C)C(=O)N[C@H]3C(C)C)n1 (stereo partly shown) [Compound 29] | 119 nM | 59 nM | 
11 | CC(=O)c1coc(-c2nc3oc2C24c5ccccc5N[C@H]2Oc2ccc(cc24)C[C@H](NC(=O)[C@@H](O)C(C)C)C(=O)N[C@H]3C(C)C)n1 (stereo partly shown) [Compound 30] | 60 nM | 13 nM | 
12 | CC(C)[C@H](O)C(=O)N[C@H]1Cc2ccc3c(c2)C2(C4=C(c5nc(C(C)(C)O)co5)N=C(O4)[C@H](C(C)C)NC1=O)c1ccccc1N[C@H]2O3 (stereo partly shown) [Compound 31] | 602 nM | 259 nM | 
13 | CNCc1coc(-c2nc3oc2C24c5ccccc5N[C@H]2Oc2ccc(cc24)C[C@H](NC(=O)[C@@H](O)C(C)C)C(=O)N[C@H]3C(C)C)n1 (stereo partly shown) [Compound 32] | > 1000 nM | > 1000 nM | 
14 | CC(C)[C@H](O)C(=O)N[C@H]1Cc2ccc3c(c2)C2(C4=C(c5nc(CN)co5)N=C(O4)[C@H](C(C)C)NC1=O)c1ccccc1N[C@H]2O3 (stereo partly shown) [Compound 33] | > 1000 nM | > 1000 nM | 
15 | COC(=O)NCc1coc(-c2nc3oc2C24c5ccccc5N[C@H]2Oc2ccc(cc24)C[C@H](NC(=O)[C@@H](O)C(C)C)C(=O)N[C@H]3C(C)C)n1 (stereo partly shown) [Compound 34] | 149 nM | 134 nM | 
16 | CC(C)[C@H](O)C(=O)NC1Cc2ccc3c(c2)C2(C4=C(c5nc(CNS(C)(=O)=O)co5)N=C(O4)[C@H](C(C)C)NC1=O)c1ccccc1N[C@H]2O3 (stereo partly shown) [Compound 35] | 151 nM | 198 nM | 
17 | CC(C)[C@H](O)C(=O)N[C@H]1Cc2ccc3c(c2)C2(C4=C(c5nc(CNS(=O)(=O)c6ccccc6)co5)N=C(O4)[C@H](C(C)C)NC1=O)c1ccccc1N[C@H]2O3 (stereo partly shown) [Compound 36] | 194 nM | 209 nM | 
18 | COC(=O)Nc1coc(-c2nc3oc2C24c5ccccc5N[C@H]2Oc2ccc(cc24)CC(NC(=O)[C@@H](O)C(C)C)C(=O)N[C@H]3C(C)C)n1 (stereo partly shown) [Compound 37] | 235 nM | 178 nM | 
19 | CC(=O)Nc1oc(-c2nc3oc2C24c5ccccc5N[C@H]2Oc2ccc(cc24)CC(NC(=O)[C@@H](O)C(C)C)C(=O)N[C@H]3C(C)C)nc1C#N (stereo partly shown) [Compound 38] | > 1000 nM | > 1000 nM | 
20 | CC(C)[C@H](O)C(=O)N[C@H]1Cc2ccc3c(c2)C2(C4=C(c5nc(C#N)co5)N=C(O4)[C@H](C(C)C)NC1=O)c1ccccc1N[C@H]2O3 (stereo partly shown) [Compound 39] | 23 nM | 71 nM | 
21 | Cc1oc(-c2nc3oc2[C@@]24c5ccccc5NC2Oc2ccc(cc24)CC(NC(=O)[C@@H](O)C(C)C)C(=O)N[C@H]3C(C)C)nc1C#N (stereo partly shown) [Compound 40] | 182 nM | 210 nM | 
22 | CC(C)[C@H](O)C(=O)NC1Cc2ccc3c(c2)C2(C4=C(c5nc(C6OCCCO6)co5)N=C(O4)[C@H](C(C)C)NC1=O)c1ccccc1N[C@H]2O3 (stereo partly shown) [Compound 41] | 65 nM | 65 nM | 

Row | SMILES | IC50 (A2058 cells) | IC50 (U937 cells; [1]) | IC50 (U937 cells; 48 hour treatment)
23 | CC(C)[C@H](O)C(=O)NC1Cc2ccc3c(c2)C2(C4=C(c5nc(C6OCCO6)co5)N=C(O4)[C@H](C(C)C)NC1=O)c1ccccc1N[C@H]2O3 (stereo partly shown) [Compound 42] | 49 nM | 43 nM | 
24 | CC(C)[C@H](O)C(=O)N[C@H]1Cc2ccc3c(c2)C2(C4=C(c5nc(C6=NCCO6)co5)N=C(O4)[C@H](C(C)C)NC1=O)c1ccccc1N[C@H]2O3 (stereo partly shown) [Compound 43] | 22 nM | 19 nM | 
25 | CC(C)[C@H](O)C(=O)NC1Cc2ccc3c(c2)[C@]2(C4=C(c5nc(-c6nnn[nH]6)co5)N=C(O4)[C@H](C(C)C)NC1=O)c1ccccc1NC2O3 (stereo partly shown) [Compound 44] | > 1000 nM | > 1000 nM | 
26 | CC(C)[C@H](O)C(=O)NC1Cc2ccc3c(c2)[C@]2(C4=C(c5nc(-c6ncc[nH]6)co5)N=C(O4)[C@H](C(C)C)NC1=O)c1ccccc1NC2O3 (stereo partly shown) [Compound 45] | 589 nM | 318 nM | 
27 | Cc1nc(-c2coc(-c3nc4oc3[C@@]35c6ccccc6NC3Oc3ccc(cc35)C[C@H](NC(=O)[C@@H](O)C(C)C)C(=O)N[C@H]4C(C)C)n2)no1 (stereo partly shown) [Compound 46] | 49 nM | 76.9 nM | 
28 | Cc1noc(-c2coc(-c3nc4oc3[C@@]35c6ccccc6NC3Oc3ccc(cc35)C[C@H](NC(=O)[C@@H](O)C(C)C)C(=O)N[C@H]4C(C)(C)C)n2)n1 (stereo partly shown) [Compound 47] | 7.06 nM | 14.2 nM | 
29 | Cc1nnc(-c2coc(-c3nc4oc3[C@@]35c6ccccc6NC3Oc3ccc(cc35)C[C@H](NC(=O)[C@@H](O)C(C)C)C(=O)N[C@H]4C(C)(C)C)n2)o1 (stereo partly shown) [Compound 48] | 6.11 nM | 6.34 nM | 
30 | COC(=O)c1coc(-c2nc3oc2C24c5ccccc5NC2Oc2ccc(cc24)C[C@H](NC(=O)[C@@H](O)C(C)C)C(=O)N[C@H]3CC(C)C)n1 (stereo partly shown) [Compound 49] | > 1000 nM | 223 nM | 
31 | COC(=O)c1coc(-c2nc3oc2C24c5ccccc5NC2Oc2ccc(cc24)C[C@H](NC(=O)[C@@H](O)C(C)C)C(=O)N[C@H]3C(C)(C)C)n1 (stereo partly shown) [Compound 50] | 53 nM | 12 nM | 
32 | COC(=O)c1coc(-c2nc3oc2C24c5ccccc5NC2Oc2ccc(cc24)C[C@H](NC(=O)[C@@H](O)C(C)C)C(=O)N[C@H]3Cc2ccccc2)n1 (stereo partly shown) [Compound 51] | > 1000 nM | > 1000 nM | 
33 | CCC[C@@H]1NC(=O)[C@@H](NC(=O)[C@@H](O)C(C)C)Cc2ccc3c(c2)C2(C4=C(c5nc(C(=O)OC)co5)N=C1O4)c1ccccc1NC2O3 (stereo partly shown) [Compound 52] | 257 nM | 71 nM | 
34 | COC(=O)c1coc(-c2nc3oc2[C@@]24c5ccccc5NC2Oc2ccc(cc24)C[C@H](NC(=O)[C@@H](O)C(C)C)C(=O)NC3)n1 (stereo partly shown) [Compound 53] | > 1000 nM | > 1000 nM | 
35 | COC(=O)c1coc(-c2nc3oc2[C@@]24c5ccccc5NC2Oc2ccc(cc24)C[C@H](NC(=O)[C@@H](O)C(C)C)C2=NC3CO2)n1 (stereo partly shown) [Compound 54] | > 1000 nM | > 1000 nM | 
36 | CC(C)[C@H](O)C(=O)N[C@H]1Cc2ccc3c(c2)[C@]2(C4=C(c5nc(CO)co5)N=C(O4)[C@H](C)NC1=O)c1ccccc1NC2O3 (stereo partly shown) [Compound 55] | > 1000 nM | > 1000 nM | 
37 | COC(=O)c1coc(-c2nc3oc2[C@@]24c5ccccc5NC2Oc2ccc(cc24)C[C@H](NC(=O)[C@@H](O)C(C)C)C(=O)N[C@H]3C)n1 (stereo partly shown) [Compound 56] | 968 nM | 588 nM | 
38 | CC(C)[C@H](O)C(=O)N[C@H]1Cc2ccc3c(c2)[C@]2(C4=C(c5nc(CO)co5)N=C(O4)[C@H](C(C)(C)C)NC1=O)c1ccccc1N[C@@H]2O3 [Compound 57] | 8.3 nM | 5.3 nM | 
39 | COC(=O)c1coc(-c2nc3oc2[C@@]24c5ccccc5NC2Oc2ccc(cc24)C[C@H](NC(=O)[C@@H](O)C(C)C)C(=O)N[C@H]3C2CCCCC2)n1 (stereo partly shown) [Compound 58] | > 1000 nM | 445 nM | 
40 | COC(=O)c1coc(-c2nc3oc2[C@]24c5ccccc5NC2Oc2ccc(cc24)C[C@H](NC(=O)[C@@H](O)C(C)C)C(=O)N[C@H]3C(C)(C)C)n1 (stereo partly shown) [Compound 59] |  |  | 69 nM
41 | CC(C)[C@H](O)C(=O)N[C@H]1Cc2ccc3c(c2)[C@]2(C4=C(c5nc(CO)co5)N=C(O4)[C@H](C4CCCCC4)NC1=O)c1ccccc1NC2O3 (stereo partly shown) [Compound 60] | > 1000 nM | 795 nM | 
42 | COC(=O)c1coc(-c2coc([C@@H]3CCCN3C(=O)[C@H](Cc3ccc4c(c3)[C@@H]3c5ccccc5NC3O4)NC(=O)[C@@H](O)C(C)C)n2)n1 (stereo partly shown) [Compound 61] | > 1000 nM | 761 nM | 
43 | CC(C)[C@H](O)C(=O)N[C@H]1Cc2ccc3c(c2)C2(C4=C(c5nc(C#N)co5)N=C(O4)[C@H](C(C)(C)C)NC1=O)c1ccccc1N[C@H]2O3 (stereo partly shown) [Compound 62] | 2.54 nM | 15.6 nM | 
